Test results taken from ChEMBL document CHEMBL1141872 (Bioorg Med Chem Lett, 2005).
pIC50: −log10 of the molar value.

Experiments:
[1] = molecular target: 3',5'-cyclic-AMP phosphodiesterase 4C (Homo sapiens, UniProt Q08493); test: Inhibitory activity against PDE4C
[2] = molecular target: 3',5'-cyclic-AMP phosphodiesterase 4A (Homo sapiens, UniProt P27815); test: Inhibitory activity against PDE4A
[3] = molecular target: 3',5'-cyclic-AMP phosphodiesterase 4D (Homo sapiens, UniProt Q08499); test: Inhibitory activity against PDE4D
[4] = molecular target: T1, Phosphodiesterase 4 (Homo sapiens, UniProt P27815+Q08499+Q07343+Q08493); test: Inhibition of LPS-induced TNFalpha production in human whole blood; type: functional, tissue-based
[5] = molecular target: 3',5'-cyclic-AMP phosphodiesterase 4B (Homo sapiens, UniProt Q07343); test: Inhibitory activity against PDE4B
[6] = tested on: Cavia porcellus; test: Inhibition of ovalbumin-induced bronchoconstriction in guinea pig at 0.3 mg/kg, ip; type: functional; conditions: route intraperitoneal
[7] = Emetic threshold as plasma concentration in ferrets after 1.0 mg/kg oral dose; type: ADME, organism-based, Mustela putorius furo; design: dose 1 mg/kg, route oral; conditions: ferret, read-out: Emesis_Cmax
[8] = tested on: Cavia porcellus; test: Inhibition of ovalbumin-induced bronchoconstriction in guinea pig at 0.1 mg/kg, ip; type: functional; conditions: route intraperitoneal
[9] = Emetic threshold as plasma concentration in squirrel monkeys after 3 mg/kg oral dose; type: ADME, organism-based; design: dose 3 mg/kg, route oral; conditions: saimiri, read-out: Emesis_Cmax
[10] = molecular target: T1, Phosphodiesterase 4; test: Inhibition of LPS-induced TNFalpha production in squirrel monkey whole blood; type: functional, tissue-based, Saimiri sciureus; conditions: target entry is the homologue from another species
[11] = Emetic threshold as plasma concentration in squirrel monkeys after 10 mg/kg oral dose; type: ADME, organism-based; design: dose 10 mg/kg, route oral; conditions: saimiri, read-out: Emesis_Cmax
[12] = tested on: Mustela putorius furo; test: Emetic threshold as plasma concentration in ferrets after 10 mg/kg oral dose; type: ADME, organism-based; design: dose 10 mg/kg, route oral; conditions: ferret, in vivo
[13] = tested on: Cavia porcellus; test: Inhibition of ovalbumin-induced bronchoconstriction in guinea pig at 1 mg/kg, ip; type: functional; conditions: route intraperitoneal
[14] = tested on: Ovis aries; test: Inhibition of early-phase antigen induced bronchoconstriction in Ascaris sensitive sheep at 0.5 mg/kg/day, iv; type: functional
[15] = tested on: Cavia porcellus; test: Inhibition of ovalbumin-induced bronchoconstriction in guinea pig at 0.01 mg/kg, ip; type: functional; conditions: route intraperitoneal
[16] = tested on: Ovis aries; test: Inhibition of late-phase antigen induced bronchoconstriction in Ascaris sensitive sheep at 0.5 mg/kg/day, iv; type: functional
[17] = Emetic threshold as plasma concentration in squirrel monkeys after 0.5 mg/kg oral dose; type: ADME, organism-based; design: dose 0.5 mg/kg, route oral; conditions: saimiri, read-out: Emesis_Cmax
[18] = Cmax in rat at 20 mg/kg, po; type: ADME, organism-based; design: dose 20 mg/kg, route oral; conditions: in vivo
[19] = Oral bioavailability in rat at 20 mg/kg, po; type: ADME, organism-based; conditions: in vivo
[20] = tested on: Cavia porcellus; test: Inhibition of ovalbumin-induced bronchoconstriction in guinea pig at 0.03 mg/kg, ip; type: functional; conditions: route intraperitoneal
[21] = Tmax in rat at 20 mg/kg, po; type: ADME, organism-based; design: dose 20 mg/kg, route oral; conditions: in vivo
[22] = Emetic threshold as plasma concentration in ferrets after 30 mg/kg oral dose; type: ADME, organism-based, Mustela putorius furo; design: dose 30 mg/kg, route oral; conditions: ferret, read-out: Emesis_Cmax

3',5'-cyclic-AMP phosphodiesterase 4A, sequence (P27815 whole entry): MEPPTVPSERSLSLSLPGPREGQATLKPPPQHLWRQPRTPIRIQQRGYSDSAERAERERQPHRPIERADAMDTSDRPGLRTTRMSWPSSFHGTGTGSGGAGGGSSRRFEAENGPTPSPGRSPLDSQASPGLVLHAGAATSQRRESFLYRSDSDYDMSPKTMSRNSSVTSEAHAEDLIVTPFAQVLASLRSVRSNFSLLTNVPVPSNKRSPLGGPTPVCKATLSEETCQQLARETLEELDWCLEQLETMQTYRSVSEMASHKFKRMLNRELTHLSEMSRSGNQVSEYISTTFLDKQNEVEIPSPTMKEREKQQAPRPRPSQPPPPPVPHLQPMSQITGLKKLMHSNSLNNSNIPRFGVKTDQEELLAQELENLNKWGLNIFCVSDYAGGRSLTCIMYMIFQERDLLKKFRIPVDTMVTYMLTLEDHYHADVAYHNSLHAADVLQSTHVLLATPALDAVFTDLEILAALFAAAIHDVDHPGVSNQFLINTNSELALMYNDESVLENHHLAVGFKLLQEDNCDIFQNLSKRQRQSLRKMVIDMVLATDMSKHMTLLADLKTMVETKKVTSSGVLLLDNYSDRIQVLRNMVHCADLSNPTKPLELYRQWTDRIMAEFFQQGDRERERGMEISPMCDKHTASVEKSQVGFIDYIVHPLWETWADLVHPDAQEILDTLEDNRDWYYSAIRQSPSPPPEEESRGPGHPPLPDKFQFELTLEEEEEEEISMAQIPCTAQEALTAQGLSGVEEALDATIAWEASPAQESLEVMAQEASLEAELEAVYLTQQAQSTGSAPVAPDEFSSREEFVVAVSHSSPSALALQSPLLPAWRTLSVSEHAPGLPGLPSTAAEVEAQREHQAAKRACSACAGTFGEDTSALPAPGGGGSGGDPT
3',5'-cyclic-AMP phosphodiesterase 4B, sequence (Q07343 whole entry): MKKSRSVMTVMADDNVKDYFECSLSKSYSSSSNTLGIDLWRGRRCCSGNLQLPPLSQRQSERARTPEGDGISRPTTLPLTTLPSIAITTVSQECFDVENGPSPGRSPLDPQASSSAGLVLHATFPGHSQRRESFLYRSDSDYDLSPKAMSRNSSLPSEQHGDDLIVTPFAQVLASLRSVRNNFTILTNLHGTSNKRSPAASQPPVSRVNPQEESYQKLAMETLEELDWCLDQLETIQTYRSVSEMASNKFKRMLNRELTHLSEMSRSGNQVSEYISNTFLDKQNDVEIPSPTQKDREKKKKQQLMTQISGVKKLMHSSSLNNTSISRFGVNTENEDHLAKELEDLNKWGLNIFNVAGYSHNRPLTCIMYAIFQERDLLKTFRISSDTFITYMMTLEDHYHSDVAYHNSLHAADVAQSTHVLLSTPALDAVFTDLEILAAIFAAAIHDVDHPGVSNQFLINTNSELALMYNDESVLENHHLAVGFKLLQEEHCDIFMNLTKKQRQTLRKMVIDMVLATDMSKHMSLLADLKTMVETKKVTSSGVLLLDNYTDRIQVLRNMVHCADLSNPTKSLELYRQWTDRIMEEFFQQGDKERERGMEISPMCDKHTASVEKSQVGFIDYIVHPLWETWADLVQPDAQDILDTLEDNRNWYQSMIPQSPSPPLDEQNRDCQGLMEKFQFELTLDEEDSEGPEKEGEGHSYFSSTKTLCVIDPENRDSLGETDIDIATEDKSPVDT
3',5'-cyclic-AMP phosphodiesterase 4D, sequence (Q08499 whole entry): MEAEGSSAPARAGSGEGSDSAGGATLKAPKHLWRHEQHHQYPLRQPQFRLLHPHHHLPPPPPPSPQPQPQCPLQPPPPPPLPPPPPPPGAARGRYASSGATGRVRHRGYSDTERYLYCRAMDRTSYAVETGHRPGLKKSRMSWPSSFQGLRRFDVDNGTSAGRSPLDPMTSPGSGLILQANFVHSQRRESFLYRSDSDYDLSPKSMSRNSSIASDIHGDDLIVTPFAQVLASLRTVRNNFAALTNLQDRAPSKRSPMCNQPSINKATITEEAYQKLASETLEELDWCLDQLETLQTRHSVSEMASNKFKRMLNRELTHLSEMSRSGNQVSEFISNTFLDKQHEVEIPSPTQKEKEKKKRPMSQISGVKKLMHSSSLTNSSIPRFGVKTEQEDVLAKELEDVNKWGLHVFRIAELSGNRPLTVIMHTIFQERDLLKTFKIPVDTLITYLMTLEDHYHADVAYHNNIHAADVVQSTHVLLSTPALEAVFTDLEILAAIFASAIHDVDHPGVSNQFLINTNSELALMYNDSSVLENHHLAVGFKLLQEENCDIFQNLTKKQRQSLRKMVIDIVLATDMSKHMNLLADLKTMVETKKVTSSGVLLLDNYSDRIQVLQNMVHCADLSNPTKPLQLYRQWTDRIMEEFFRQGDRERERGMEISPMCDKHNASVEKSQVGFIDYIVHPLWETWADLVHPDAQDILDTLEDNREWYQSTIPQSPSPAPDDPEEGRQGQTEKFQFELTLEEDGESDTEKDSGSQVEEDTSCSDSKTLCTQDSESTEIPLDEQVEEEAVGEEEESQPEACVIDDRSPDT
3',5'-cyclic-AMP phosphodiesterase 4C, sequence (Q08493 whole entry): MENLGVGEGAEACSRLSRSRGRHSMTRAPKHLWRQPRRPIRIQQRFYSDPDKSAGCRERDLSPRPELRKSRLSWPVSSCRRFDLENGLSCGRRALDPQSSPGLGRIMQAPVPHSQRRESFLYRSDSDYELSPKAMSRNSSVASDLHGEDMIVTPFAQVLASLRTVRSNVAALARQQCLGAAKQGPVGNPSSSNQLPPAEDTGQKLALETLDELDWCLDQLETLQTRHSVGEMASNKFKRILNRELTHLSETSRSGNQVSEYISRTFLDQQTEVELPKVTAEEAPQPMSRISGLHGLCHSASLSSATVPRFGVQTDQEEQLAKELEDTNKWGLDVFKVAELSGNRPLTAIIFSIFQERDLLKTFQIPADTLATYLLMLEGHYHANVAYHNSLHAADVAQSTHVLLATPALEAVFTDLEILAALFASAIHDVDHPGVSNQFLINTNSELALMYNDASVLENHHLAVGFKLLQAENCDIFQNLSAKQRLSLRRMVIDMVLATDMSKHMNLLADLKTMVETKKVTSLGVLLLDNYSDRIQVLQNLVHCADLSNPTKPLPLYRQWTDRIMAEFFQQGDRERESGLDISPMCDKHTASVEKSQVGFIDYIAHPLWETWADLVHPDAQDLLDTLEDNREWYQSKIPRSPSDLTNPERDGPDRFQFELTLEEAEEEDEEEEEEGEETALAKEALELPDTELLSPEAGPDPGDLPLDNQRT

| Compound | pIC50 [1] | pIC50 [2] | pIC50 [3] | pIC50 [4] | pIC50 [5] | also measured |
| --- | --- | --- | --- | --- | --- | --- |
| Cc1ccc(/C(=C/c2cccc(-c3cc(C(C)C)cc4cccnc34)c2)c2ccc(S(C)(=O)=O)cc2)nc1 | 9.40 | 9.70 | 9.70 | 6.92 | 9.70 |  |
| Cc1noc(/C(=C/c2cccc(-c3cc(C(C)C)cc4cccnc34)c2)c2ccccn2)n1 | 8.24 | 9.30 | 9.22 | 5.92 | 9.52 |  |
| COc1cccc(-c2cc(Cc3ccncc3)cc3cccnc23)c1 | 8.48 | 8.82 | 8.60 | 5.08 | 8.64 | inhibition in vivo at 0.3 mg/kg [6]: 70%; Cmax [7]: 200 nM |
| CC(C)c1cc(-c2cccc(C(Cc3cc[n+]([O-])cc3)c3ccc(Cl)cc3)c2)c2ncccc2c1 (stereo not given) | 7.17 | 7.28 | 7.35 | 4.96 | 7.72 |  |
| CC(C)c1cc(-c2cccc(CC(c3ccncc3)C(C)(C)O)c2)c2ncccc2c1 (stereo not given) | 6.97 | 8.47 | 8.36 | 4.92 | 8.74 | IC50 [10]: 0.45 µM; Cmax [11]: 11.9 µM; Emesis_Cmax [12]: 2.9 µM; inhibition in vivo at 1 mg/kg [13]: 47% |
| [O-][n+]1cccc(C[C@@H](c2ccc(OC(F)F)c(OC3CC3)c2)c2cnc(C(O)(C(F)(F)F)C(F)(F)F)s2)c1 | 9.00 | 9.40 | 9.40 | 7.05 | 9.40 | inhibition in vivo at 0.5 mg/kg/day [14]: 68%; inhibition in vivo at 0.01 mg/kg [15]: 62%; IC50 [10]: 0.005 µM; inhibition in vivo at 0.5 mg/kg/day [16]: 92%; Cmax [17]: 1600 nM |
| O=S(=O)(Nc1cccc(-c2cc(Cc3ccncc3)cc3cccnc23)c1)c1ccccc1 | 7.92 | 8.25 | 8.70 | 5.11 | 8.52 | Emesis_Cmax [12]: > 2 µM; inhibition in vivo at 1 mg/kg [13]: 46% |
| Cc1noc(/C(=C/c2cccc(-c3cc(C(C)(C)S(C)(=O)=O)cc4cccnc34)c2)c2ccc(S(C)(=O)=O)cc2)n1 |  |  |  |  |  | Cmax [18]: 5.1 µM; bioavailability [19]: 100%; inhibition in vivo at 0.5 mg/kg/day [14]: 73%; Cmax [11]: 3.8 µM; inhibition in vivo at 0.5 mg/kg/day [16]: 95%; Tmax [21]: 6 h |
| Cc1noc(/C(=C/c2cccc(-c3cc(C(C)C)cc4cccnc34)c2)c2ccc(S(C)(=O)=O)cc2)n1 | 8.92 | 9.80 | 9.70 | 6.59 | 10.15 | Cmax [18]: 0.5 µM; bioavailability [19]: 11%; Tmax [21]: 0.5 h |
| CC(C)c1cc(-c2cccc(C(Cc3ccncc3)c3ccc(Cl)cc3)c2)c2ncccc2c1 (stereo not given) | 7.66 | 7.93 | 7.42 | 4.51 | 8.19 |  |
| COc1ccc([C@H](Cc2ccncc2)c2ccccc2)cc1OC1CCCC1 [CDP840] | 8.35 | 8.68 |  | 4.85 | 8.85 | Cmax [22]: 2500 nM; inhibition in vivo at 0.5 mg/kg/day [14]: 39%; IC50 [10]: 0.6 µM; Cmax [11]: 4 µM; inhibition in vivo at 0.5 mg/kg/day [16]: 88%; inhibition in vivo at 1 mg/kg [13]: 54% |

More lines, main results first:

| pIC50 [1] | pIC50 [2] | pIC50 [3] | pIC50 [4] | pIC50 [5] | Compound | also measured |
| --- | --- | --- | --- | --- | --- | --- |
| 9.15 | 9.33 | 9.72 | 6.92 | 9.52 | CC(C)c1cc(-c2cccc(/C=C(\c3ccc(S(C)(=O)=O)cc3)c3nccs3)c2)c2ncccc2c1 |  |
| 8.42 | 9.52 | 9.30 | 5.80 | 9.52 | CC(C)c1cc(-c2cccc(/C=C(/C(=O)O)c3ccc(S(C)(=O)=O)cc3)c2)c2ncccc2c1 |  |
| 7.85 | 9.05 | 8.64 | 6.03 | 9.30 | CC(C)NC(=O)/C(=C/c1cccc(-c2cc(C(C)(C)S(C)(=O)=O)cc3cccnc23)c1)c1ccc(S(C)(=O)=O)cc1 | inhibition in vivo at 0.1 mg/kg [8]: 59%; Cmax [9]: > 2500 nM |
| 9.30 | 9.40 | 9.30 | 6.21 | 9.52 | CC(C)c1cc(-c2cccc(/C=C(/c3ccc(C(C)(C)O)cc3)c3ccc(S(C)(=O)=O)cc3)c2)c2ncccc2c1 |  |
| 7.96 | 8.77 | 8.70 | 6.68 | 8.96 | CC(c1cc(-c2cccc(/C=C(\c3ccc(S(C)(=O)=O)cc3)c3ncc(C(C)(C)O)s3)c2)c2ncccc2c1)S(C)(=O)=O (stereo not given) |  |
| 7.94 | 9.00 | 9.30 | 6.68 | 9.40 | CC(C)NC(=O)/C(=C\c1cccc(-c2cc(C(C)(C)C#N)cc3cccnc23)c1)c1ccc(S(C)(=O)=O)cc1 |  |
| 8.17 | 9.10 | 9.15 | 7.15 | 9.52 | CC(C)NC(=O)/C(=C/c1cccc(-c2cc(C(C)(C)C#N)cc3cccnc23)c1)c1ccc(S(C)(=O)=O)cc1 | Cmax [18]: 4.1 µM; bioavailability [19]: 80%; IC50 [10]: 0.015 µM; Cmax [11]: 1.9 µM; inhibition in vivo at 0.03 mg/kg [20]: 75%; Tmax [21]: 6 h |
| 8.54 | 9.52 | 9.22 | 6.85 | 9.52 | CC(C)NC(=O)/C(=C/c1cccc(-c2cc(C(C)C)cc3cccnc23)c1)c1ccc(S(C)(=O)=O)cc1 |  |
